Data on 10 compounds can be found in patent US20030017148A1, “Prevention of insulin-dependent diabetes, complications thereof, or allograft rejection by inhibition of cyclooxygenase-2 activity” (Oklahoma Medical Research Foundation, priority 2000, published 2003).

The subject of data set [1] is STZ-induced IDDM. In words: Multiple low-dose STZ-induced IDDM in CD-1 mice, PDTC treatment. In kind it is in vivo. The note with it: for Blood Glucose Level: STZ 40 mg/Kg 5 days, PDTC 150 mg/Kg daily, 100 mg/Kg from day 7, 11 treatments. The protocol:
Method. CD-1 mice were divided into two groups (6 mice/group). Group 1 was treated with STZ (40 mg/Kg dissolved in cold sodium citrate buffer, pH 4.5) for 5 consecutive days. Group 2 was treated with STZ as described and received daily treatments of PDTC (150 mg/Kg, dissolved in physiological saline) starting from day 1 of STZ treatment. The PDTC dose was reduced to 100 mg/Kg at day 7 of the treatment. A total of 11 daily treatments of PDTC were given to the mice in this group (up to day 11 from the start of STZ treatment). Blood glucose levels were periodically determined in these mice.

Data set [2] relates to STZ-induced IDDM. In words: Multiple low-dose STZ-induced IDDM in mice, NS-398 treatment. In kind it is in vivo. On the procedure: Chemicals: Streptozotocin was obtained from Sigma Chemical Company (St. Louis, Mo.). NS-398 was obtained from Cayman Chemicals (Ann Arbor, Mich.). Determination of blood glucose level was performed using the glucose oxidase kit obtained from Sigma Chemical Co. Total glycated hemoglobin (Hb A1) was measured using a kit from Sigma. Animal treatment: Ball/c or CD-1 mice (male, 6-8 weeks) from Charles-River (Indianapolis, Ind.) were used in this study. STZ was dissolved in citrate buffer pH 4.5 and was administered within 10 minutes of its dissolution. Animals receiving NS-398 treatment were injected with this compound 15 min prior to STZ treatment. Since STZ is both toxic and carcinogenic, extreme caution was practiced in its handling. NS-398 was dissolved in dimethylsulfoxide (DMSO). […] To control for the effect of DMSO, mice in the STZ group received 40 μl injections of DMSO for the same number of days as the STZ+NS-398 group. At different time intervals after the treatments, tail tip blood was drawn and used for the measurement of blood glucose levels and/or glycated hemoglobin. [table] […] PBS (control group) for 5 consecutive days. […] The STZ group received only STZ injections. […] For histological studies, 35 days following the treatments (multiple low-dose STZ±NS-398), mice were anaesthetized and perfused with 4% paraformaldehyde and pancreata were removed and post-fixed for an additional day. The paraffin sections (6 μ) were stained with Gambier's aldehyde fuchsia for the identification of pancreatic β cells. Untreated mice were used as controls for these studies. Statistical analyses: Statistical analyses of the data were performed using one way analysis of variance (Anoa) followed by Student's t-test. In order to determine whether NS-398 treatment would protect the animals against the diabetogenic action of STZ, blood glucose level, and the level of glycated hemoglobin (a marker of chronic hyperglycemia) were monitored in the mice treated with STZ in the absence and presence of NS-398. Histological studies were also performed on the pancreata of the treated animals in order to obtain morphological information on the status of the islet β cells.

Data set [3] concerns high-dose STZ-induced IDDM. Put plainly: Single high-dose STZ-induced IDDM in mice, NS-398 pre-treatment. It counts as in vivo. The following applies: 48 h after single STZ 220 mg/Kg; NS-398 10 mg/Kg 15 min prior to STZ. On the procedure: Animal treatment: Ball/c or CD-1 mice (male, 6-8 weeks) from Charles-River (Indianapolis, Ind.) were used in this study. STZ was dissolved in citrate buffer pH 4.5 and was administered within 10 minutes of its dissolution. Animals receiving NS-398 treatment were injected with this compound 15 min prior to STZ treatment. Since STZ is both toxic and carcinogenic, extreme caution was practiced in its handling. NS-398 was dissolved in dimethylsulfoxide (DMSO). […] To control for the effect of DMSO, mice in the STZ group received 40 μl injections of DMSO for the same number of days as the STZ+NS-398 group. At different time intervals after the treatments, tail tip blood was drawn and used for the measurement of blood glucose levels and/or glycated hemoglobin. [table] […] PBS (control group) for 5 consecutive days. […] The STZ group received only STZ injections.

The conditions of data set [4]: in vivo; cited from earlier work.
For another data set, the target named is T1, COX-2 (Homo sapiens, UniProt P35354).
T1 sequence (P35354 18-604): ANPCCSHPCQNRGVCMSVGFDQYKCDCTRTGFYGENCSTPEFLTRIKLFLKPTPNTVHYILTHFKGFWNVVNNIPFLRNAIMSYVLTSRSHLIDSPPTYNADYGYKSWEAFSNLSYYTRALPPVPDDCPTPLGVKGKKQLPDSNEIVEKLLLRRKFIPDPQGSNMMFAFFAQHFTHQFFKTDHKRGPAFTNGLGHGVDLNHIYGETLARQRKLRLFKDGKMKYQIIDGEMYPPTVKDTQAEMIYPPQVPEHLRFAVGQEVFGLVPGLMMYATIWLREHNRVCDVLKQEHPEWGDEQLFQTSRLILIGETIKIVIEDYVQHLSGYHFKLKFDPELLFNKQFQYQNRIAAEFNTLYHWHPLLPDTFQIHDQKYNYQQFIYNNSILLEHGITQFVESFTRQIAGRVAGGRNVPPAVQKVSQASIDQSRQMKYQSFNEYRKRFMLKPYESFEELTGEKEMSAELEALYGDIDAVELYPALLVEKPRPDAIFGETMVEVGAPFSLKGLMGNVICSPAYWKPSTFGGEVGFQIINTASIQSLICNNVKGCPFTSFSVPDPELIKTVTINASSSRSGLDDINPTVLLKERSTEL
The note with it: cellular systems; cited from earlier work.

For data set [5], the system named is IDDM in low-dose STZ model. The note with it: cited from earlier work.
Data set [6] can be described thus: Tolerability of indomethacin in STZ-treated mice. The note with it: indomethacin 3 mg/Kg/day with STZ 40 mg/Kg/day for 5 days; 5 mice/group.
Experimental: In experiment 4, two groups of mice (5 mice/group) were treated with STZ (40 mg/Kg/day for 5 days). One group of these mice received daily treatments of indomethacin (3 mg/Kg/day). Indomethacin was dissolved in DMSO and an injection volume of 40 μl was used.

pIC50: −log10 of the molar value. Values joined by “and” are separate entries in the source; they are usually repeats but may differ in a detail not shown here. Equal values may be shown once.

For the compound `CN(N=O)C(=O)N[C@H]1C(O)O[C@H](CO)[C@@H](O)[C@@H]1O` (mixture of isomers) [STZ, Streptozotocin], the “Blood Glucose Level” value in the data set with STZ-induced IDDM [1] (day 11 of treatment) is 249.0 ± 50.2 mg/dL; in the data set on STZ-induced IDDM [1] (day 19 of treatment), 446.7 mg/dL and 446.7 ± 106.1 mg/dL; with STZ-induced IDDM [2] (30 days following completion of STZ treatment, STZ 40 mg/Kg/day 5 days, NS-398 5 mg/Kg/day ip from day 1, continued 6 days after STZ, mean ± SD) it was 304.0 ± 91.6 mg/dL; in data set [3] it was 311.1 ± 80.7 mg/dL. Also, the “glycated hemoglobin level (FIG. 2)” value in the data set on STZ-induced IDDM [2] (30 days following treatment, STZ 40 mg/Kg/day 5 days ± NS-398) is “significantly elevated levels of glycated hemoglobin”. Moreover, in the data set with STZ-induced IDDM [2] (35 days following multiple low-dose STZ ± NS-398), the “histology of pancreatic islet β cells (aldehyde fuchsin, FIG. 3)” value is recorded as “nearly completely destroyed”. Also, the “blood glucose level (FIG. 1)” value with STZ-induced IDDM [2] (experiment 1: STZ 40 mg/Kg/day ip 5 days, NS-398 10 mg/Kg/day, 11 injections from day 1, followed up to 28 days after cessation of NS-398) is recorded as “progressive rise in the blood glucose concentration”.

For the compound `CS(=O)(=O)Nc1cc2c(cc1Oc1ccc(F)cc1F)C(=O)CC2` [Flosulide], the ID50 in data set [4] is below 0.1 mg/kg.

Broadly, the pIC50 is the negative decadic logarithm of the IC50, by convention in mol/L. With `Cc1nc(C2CCCCC2)c(-c2ccc(S(N)(=O)=O)c(F)c2)o1` [JTE-522, 4-(4-cyclohexyl-2-methyloxazol-5-yl)-2-Fluorobenzene Sulfonamide], the pIC50 at COX-2 was 7.82.

Usually ED50 stands for the dose at which the effect has come halfway, by size or by number of responders. Turning to `CS(=O)(=O)Nc1cc2c(cc1Sc1ccc(F)cc1F)C(=O)CC2` [L-745,337, 5-methane sulfonamido-6-(2,4-difluorothiophenyl)-1-indanone], in data set [4], the median effective dose (ED50) is listed as 2 mg/kg and the ID50 was 0.4 mg/kg.

Turning to `Cc1ccc(-c2ncc(Cl)cc2-c2ccc(S(C)(=O)=O)cc2)cn1` [L-791,456, 5-Chloro-3(4-methylsulfonyl) phenyl-2-(2-methyl-5-pyridinyl) pyridine], in data set [4], the ED50 is listed as 0.6 mg/kg.

Turning to `CC(C)(C)[N+]([O-])=Cc1ccccc1` [PBN, phenyl N-tert-butylnitrone], the “protection against IDDM” value in data set [5] is listed as “protect against IDDM”.

Turning to `CCSc1nnc(-c2cc(C(C)(C)C)c(O)c(C(C)(C)C)c2)s1` [PD164387], the ED40 in data set [4] is listed as 7.1 mg/kg.

Regarding `S=C(S)N1CCCC1` [PDTC, Pyrrolidine Dithiocarbamate], the “protection from STZ-induced IDDM” value in the data set on STZ-induced IDDM [1] (PDTC daily from day 1 of STZ treatment) is reported as “protected from STZ-induced IDDM”. Also, the “Blood Glucose Level” value is 190.8 ± 23.2 mg/dL with STZ-induced IDDM [1] (day 11 of treatment); 199.6 mg/dL and 199.6 ± 35.6 mg/dL in the data set with STZ-induced IDDM [1] (day 19 of treatment).

For the compound `CS(=O)(=O)c1ccc(C2=C(c3ccc(F)cc3)CCC2)cc1` [SC-57666, 1-[2-(4-Fluorophenyl)cyclopenten-1-yl]-4-(methylsulfonyl) benzene], the ED50 entry in data set [4] is “low”.

As to `COc1ccc2c(c1)c(CC(=O)O)c(C)n2C(=O)c1ccc(Cl)cc1` [indomethacin], the “mice that died during or following treatment” value in data set [6] is “Four out of five”.
